Patent US20160136284A1, “GLIOMA TREATMENT” (priority 2012, published 2016)

What was measured:
[1] = tested on: SNB19 and UPAB glioma cells; assay: MTT cytotoxicity assay in glioma cell lines; format: cell-based
Procedure: Cell lines were kindly provided by Geoffrey Pilkington from the Institute of Biomedical and Biomolecular Sciences at Portsmouth University, UK. The cell lines used in this study were SNB19 (P20-P45) and UPAB (P20-P45).
Briefly, SNB19 and UPAB glioma cells were plated at 1×10^4/well in a 24-well plate. Cells were treated 72 hours later with Carboplatin at the following concentrations: 0.06 mg, 0.12 mg, 0.18 mg, 0.24 mg, 0.3 mg, 0.36 mg, and 0.6 mg (TEVA, UK) for 24, 48, 72, or 96 hours. Each concentration was repeated 4 times. Carboplatin was diluted in phosphate buffered saline (PBS; Sigma Aldrich, UK) and added to 0.5 mL culture media. PBS was used as a negative control and Puromycin dihydrochloride (10 μg/mL; Sigma Aldrich, UK), which inhibits cell growth by preventing protein synthesis, was used as a positive control. Following the incubation period, culture media was changed. Then 50 μL Methylthiazolyl-tetrazolium bromide solution (MTT; Sigma Aldrich, UK; 5 mg/mL) was added to each well and further incubated for 3 hours at 37° C. in a humidified 5% CO2 atmosphere to allow MTT to form formazan crystals in metabolically active cells. Following this, media was removed, and the formazan crystals in each well were solubilized with 190 μL of isopropanol (Fisher Scientific, Loughborough, UK) acidified with hydrochloric acid (VWR, Leicestershire, UK). The cell lysate was transferred to a 96 well plate and the absorbance of each well was measured at 570 nm using a Multiskan Ascent plate reader (Thermo Electron Corporation, UK). Results are expressed as a percentage (%) of treated versus untreated cells.

[2] = Tissue distribution and half-life of carboplatin after CED into rat brain (LA-ICP-MS); format: in vivo
Procedure: Male Wistar rats (Charles River, UK) were group-housed and allowed to acclimatise prior to experimental procedures. Rats weighing 225 to 275 g were anaesthetised with an intraperitoneal dose of medetomidine (Dormitor; 0.4 mg/kg; Pfizer Animal Health, Kent, UK) and ketamine (Ketaset; 100 mg/kg; Pfizer, UK) and placed in a stereotactic frame (Stoelting Co, Wood Dale, Ill. USA). A linear incision was made between the glabella and the occiput and the skull exposed. Burr holes with a diameter of approximately 2 mm were drilled 1.0 mm anterior and 2.5 mm lateral to the bregma and cannulae were inserted to a depth of 2.5 mm below the dura. All cannulae were pre-primed with either saline or carboplatin and the desired dose prior to insertion into the brain. Every attempt was made to ensure that no air bubbles were present in the infusion cannula. Infusions of 2.5 μl of carboplatin at specific concentrations (outlined in Table 1) were conducted at a rate of 5 μl/min. Following infusion completion, the cannula was left in-situ for 10 min before being withdrawn at a rate of 1 mm/min. The wound was then closed with 5.0 Vicryl (Ethicon, Gargrave, UK) a dose of intramuscular buprenorphine was administered (Vetergesic; 0.03 mg/kg; Alstoe Animal Health, York, UK) and the anaesthetic was reversed with an intraperitoneal dose of atipamezole hydrochloride (Antisedan; 5 mg/kg; Pfizer, UK). […]
Resultant data (.csv files) was in the form of signal response for each monitored isotope (separate columns) against time; as such, ion-responses could be co-ordinated to form 2D elemental distribution maps, using the Graphis software package (Kylebank Software Ltd, Ayr, UK).
The laser ablation (LA) system was configured to perform multiple, parallel line-rastering of sections. […] Isotopes (^13C, ^57Fe, ^66Zn, ^157Gd and ^195Pt) were monitored in a time-resolved mode and selected on the basis of high-percentage abundance and minimal isobaric and polyatomic interferences. […]

For `N.N.O=C([O-])C1(C(=O)[O-])CCC1.[Pt+2]` [carboplatin], the “concentration above which increase in cell kill is negligible” value ([1]; 72 hour exposure) was 0.24 mg/mL, the “concentration above which increase in cell kill is negligible” value ([1]; 96 hour exposure) was 0.18 mg/mL and the cell kill ([1]; 96 hour exposure, 0.18 mg/ml) was “greater than 90%”. For the same molecule, the “distribution in rat brain at 0 hours post-infusion” value ([2]; 0.03 mg/ml by CED into corpus callosum) was “widespread distribution”, the “time platinum detectable by LA-ICP-MS” value ([2]; 0.03 mg/ml by CED into rat corpus callosum) was “up to 24 hours” and the “time carboplatin remains in the brain” value ([2]; rat, CED) was “at least 24 hours”.
